# Laboratory results as given in US11142524B2, “Substituted-3H-imidazo[4,5-c]pyridine and 1H-pyrrolo[2,3-c]pyridine series of novel Ectonucleotide Pyrophosphatase/Phosphodiesterase-1 (ENPP1) and stimulator for interferon genes (STING) modulators as cancer immunotherapeutics” (Stingray Therapeutics, Inc., priority 2018, dated 2021).
# Columns and labels:
# [1] = target: T1, Recombinant Human ENPP-1 Protein (purified in-house) (Homo sapiens (Human), UniProt P22413); experiment: ENPP1 Assay (ATP), Example 2; assay type: biochemical
# T1 sequence (P22413 whole entry, looked up): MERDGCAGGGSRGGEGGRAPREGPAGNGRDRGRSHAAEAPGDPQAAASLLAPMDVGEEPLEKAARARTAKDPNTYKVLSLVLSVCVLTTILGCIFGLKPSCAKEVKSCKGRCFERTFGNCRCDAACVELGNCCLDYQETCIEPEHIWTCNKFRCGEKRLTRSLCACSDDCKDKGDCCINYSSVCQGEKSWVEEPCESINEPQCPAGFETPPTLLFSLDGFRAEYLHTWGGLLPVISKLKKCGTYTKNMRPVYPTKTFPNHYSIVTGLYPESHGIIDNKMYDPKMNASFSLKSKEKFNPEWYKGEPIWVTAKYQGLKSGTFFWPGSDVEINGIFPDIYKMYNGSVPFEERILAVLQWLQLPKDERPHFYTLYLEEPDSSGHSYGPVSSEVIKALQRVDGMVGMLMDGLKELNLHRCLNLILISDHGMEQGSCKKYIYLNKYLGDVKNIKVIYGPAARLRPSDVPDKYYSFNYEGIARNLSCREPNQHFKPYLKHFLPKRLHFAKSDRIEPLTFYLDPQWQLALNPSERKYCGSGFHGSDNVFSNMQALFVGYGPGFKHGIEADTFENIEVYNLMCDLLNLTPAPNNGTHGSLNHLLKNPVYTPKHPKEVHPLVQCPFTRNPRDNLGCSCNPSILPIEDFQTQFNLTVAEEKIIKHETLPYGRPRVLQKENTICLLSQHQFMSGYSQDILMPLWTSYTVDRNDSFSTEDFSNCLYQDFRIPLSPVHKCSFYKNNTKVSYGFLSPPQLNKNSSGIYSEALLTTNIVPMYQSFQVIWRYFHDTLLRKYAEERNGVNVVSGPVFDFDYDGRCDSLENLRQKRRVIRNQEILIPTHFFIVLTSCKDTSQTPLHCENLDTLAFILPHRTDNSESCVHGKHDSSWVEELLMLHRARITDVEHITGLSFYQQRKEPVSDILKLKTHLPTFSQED
# Protocol: Assay Buffer: 1 mM CaCl2, 0.2 mM ZnCl2, 50 mM Tris, pH 9.0. Substrate: 100 μM Adenosine 5′-triphosphate disodium salt hydrate (Promega: V703A)—Assay Conc.: 10 μM. Enzyme: 1 ng/μL Recombinant Human ENPP-1 Protein (purified in-house)—Assay Conc.: 5 ng/well of DMSO in 96-well white assay plates. Cell Titer Glo (Promega, cat #G7572).
# A ten point serial dilution of drugs was prepared in 10× in assay buffer with the final assay concentrations starting at 10 μM, 3 μM, 1 μM, 0.3 μM . . . 0 μM. A dilution of DMSO was included as a control. The assay plate was set up as follows with each well in duplicate: 75 μL assay buffer+10 μL ENPP1 inhibitor or DMSO Dilutions+10 μL Substrate+5 μL Enzyme (5 ng). Both the enzyme and substrate were added to opposite sides of the well to ensure that there was no interaction until all wells had both components. The plate was then centrifuged gently for 10 seconds, followed by incubation at RT for 20 minutes. To detect levels of ATP, Cell Titer Glo was added 1:1 to each well and incubated for 10 minutes. The reaction was quantified by measuring luminescence using the Envision Plate Reader.
# [2] = target: ENPP1 protein (Homo sapiens (Human), UniProt P22413); experiment: ENPP1 Inhibition Assay (thymidine 5′-monophosphate p-nitrophenol ester substrate); assay type: biochemical
# Sequence of ENPP1 protein (P22413 whole entry, looked up, change not shown): as the sequence (P22413 whole entry, looked up) above
# Protocol: Assay Buffer: 1 mM CaCl2, 0.2 mM ZnCl2, 50 mM Tris, pH 9.0. Substrate: 8 mM Thymidine 5′-monophosphate p-nitrophenol ester sodium salt (Sigma Cat #T4510). Enzyme: 5 ng/L Recombinant Human ENPP-1 Protein (R&D Cat #6136-EN-010) in DMSO in 96-well clear assay plates
# (§1) An eight point serial dilution of drugs was prepared in 10× in assay buffer with the final assay concentrations starting at 10 μM, 3 μM, 1 μM, 0.3 μM . . . 0 μM. A dilution of DMSO was included as a control. The assay plate was set up as follows with each well in duplicate: 81 μL assay buffer+10 μL ENPP1 inhibitor or DMSO+5 μL Substrate+4 μL Enzyme. Both the enzyme and substrate were added to opposite sides of the well to ensure that there was no interaction until all wells had both components. The plate was then centrifuged gently for 10 seconds, followed by an incubation at 37° C. for 45 minutes. The reaction was quantified by measuring absorbance at 405 nm using the Envision.
# IC50 values are determined using GraphPad Prism 5 software. The data were entered as an X-Y plot into the software as percent inhibition for each concentration of the drug. The concentration values of the drug were log transformed and the nonlinear regression was carried out using the “sigmoidal dose-response (variable slope)” option within the GraphPad software to model the data and calculate IC50 values. The IC50 values reported are the concentration of drug at which 50% inhibition was reached.
# [3] = test system: UWB1.289; experiment: Chou-Talalay Synergy Study with Olaparib, UWB1.289; assay type: cell-based; conditions: UWB1.289, 72 hours
# Protocol: Cell Lines: MDA-MB-468 and UWB289.1 (ATCC). Cell Titer Glo (Promega cat #: G7572). 96-well TC treated, white assay plates
# Cells were cultured according to ATCC tissue culture recommendations. Cells were plated in a 96-well tissue culture plate at a density of 1500 cells/well and allowed to settle overnight. The following day, both drugs were prepared at 10× concentration in the following ratios (Compound 22:Olaparib): 1:1, 10:1, and 1:10. The drugs were serially diluted to create an 8-point dose curve and 10 μL of each drug was added to the cells for a total volume of 100 μL/well. Plates were placed in a tissue culture incubator for 72 hours. Following incubation, each plate was treated with Cell Titer Glo according to vendor recommendation and luminescence was measured with the Envision Plate Reader. Data was analyzed using CalcuSyn software according to the methods described in Chou, Drug combination studies and their synergy quantification using the Chou-Talalay method, Cancer Res. 2010 Jan. 15; 70(2):440-6.
# A Combination index (CI) value greater than 1 indicates […], equal to 1 indicates additive and less than 1 indicates synergy.
# [4] = target: T1, Recombinant Human ENPP-1 Protein (purified in-house); experiment: ENPP1 Assay (TMP), Example 2; assay type: biochemical
# Protocol: Enzyme: 1 ng/μL Recombinant Human ENPP-1 Protein (purified in-house)—Assay Conc.: 5 ng/well of DMSO in 96-well clear assay plates.
# as §1, with “A ten” for “An eight”, “75” for “81”, “DMSO Dilutions+10” for “DMSO+5”, “Substrate+5” for “Substrate+4”, “Enzyme (5 ng).” for “Enzyme.”, “Envision Plate Reader.” for “Envision.”
smiles,measurement,setting,value
"COc1ccc(NC(=O)CSc2nc3c(C)c(C#N)ncc3[nH]2)cc1O [Compound 78, 2-((6-Cyano-7-methyl-3H-imidazo[4,5-c]pyridin-2-yl)thio)-N-(3-hydroxy-4-methoxyphenyl) acetamide]",IC50,"[1]; FIG. 5B, ATP substrate, read-out: IC50",0.0731 µM
same,IC50,"[1]; Table 5, ATP substrate, read-out: ENPP1 (IC50 μM) ATP",0.116 µM
same,inhibiting the activity of ENPP1,[2]; FIG. 1,effective
same,IC50,"[2]; Table 1, FIG. 1, read-out: IC50",79.7 nM
same,ED50 Drug Concentration Compound 78,[3],48800 nM
same,IC50,"[4]; FIG. 5A, TMP substrate, read-out: IC50",0.271 µM
same,IC50,"[4]; Table 5, TMP substrate, read-out: ENPP1 (IC50 μM) TMP",0.271 µM
